Experiments:
HiBit-KRAS^G12C [1] = biological target: T1, HiBit-KRAS^G12C (Homo sapiens, UniProt P01116, G12C); assay: HiBit degradation assay in MiaPaCa-2 HiBit-KRas^G12C cells; type: cell-based; settings: 24 hours; for DC50: read-out: KRas^G12C-HiBiT (MiaPaCa; 0.5% DMSO) IC50
Summary of the method: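 MiaPaCa-2 cells with CRISPR N-terminal HiBit knock-in on one endogenous KRAS^G12C allele, treated 24 hours at 37° C with compound titrated 10 μM to 20 nM (0.1% or 0.5% DMSO). Lytic HiBit luminescence normalized to DMSO, 4-parameter fit giving DC50 and Dmax; points cytotoxic to […] cells by alamar blue excluded.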

HiBit-KRAS^G12C [2] = biological target: T1, HiBit-KRAS^G12C; assay: HiBit degradation assay in SW1573 HiBit-KRas^G12C cells; type: cell-based; parameters: expressed in transfected cells; host or cells: SW1573 (clone E6), modified pcDNA3.1 vector, TK promoter; settings: 24 hours
Summary of the method: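 SW1573 cells stably expressing N-terminally HiBit-tagged KRAS G12C, under the TK promoter, were treated 24 h at 37 °C with 10 μM to 20 nM compound in 0.1% or 0.5% DMSO. Residual HiBit luminescence normalised to DMSO and fitted with a 4-parameter model for DC50 and Dmax. Points with ≥50% viability loss (alamar blue) excluded.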

[3] = MIA PaCa-2, MiaPaCa-2 HiBit-KRas^G12C cells, 0.5% DMSO, maximum degradation, read-out: KRas^G12C-HiBiT (MiaPaCa; 0.5% DMSO) DMax
[4] = MiaPaCa-2 HiBit-KRas^G12C cells, 0.5% DMSO
[5] = read-out: KRas^G12C-HiBiT (SW1573; 0.5% DMSO) IC50***, SW1573 HiBit-KRas^G12C, 0.5% DMSO
[6] = SW1573 HiBit-KRas^G12C, 0.1% DMSO, read-out: KRas^G12C-HIBit (SW1573; 0.1% DMSO) DC50*
[7] = SW1573, SW1573 HiBit-KRas^G12C, 0.5% DMSO, read-out: KRas^G12C-HiBiT (SW1573; 0.5% DMSO) Dmax**
[8] = MIA PaCa-2, MiaPaCa-2 HiBit-KRas^G12C cells, 0.1% DMSO, maximum degradation, read-out: KRas^G12C-HiBiT (MiaPaCa; 0.1% DMSO) DMax
[9] = SW1573, SW1573 HiBit-KRas^G12C, 0.1% DMSO, read-out: KRas^G12C-HiBit (SW1573; 0.1% DMSO) Dmax**

T1 sequence (P01116 1-186 isoform P01116-2 G12C limits assumed): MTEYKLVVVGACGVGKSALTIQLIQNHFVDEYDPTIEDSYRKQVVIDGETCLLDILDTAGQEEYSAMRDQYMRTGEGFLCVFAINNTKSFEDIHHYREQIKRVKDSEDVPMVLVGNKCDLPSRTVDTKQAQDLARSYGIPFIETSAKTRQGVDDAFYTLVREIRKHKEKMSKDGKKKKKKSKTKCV

| SMILES | Dmax (HiBit-KRAS^G12C [1]; [3]) [%] | DC50 (HiBit-KRAS^G12C [1]; [4]) [nM] | DC50 (HiBit-KRAS^G12C [2]; [5]) [nM] | DC50 (HiBit-KRAS^G12C [2]; [6]) [nM] | Dmax (HiBit-KRAS^G12C [2]; [7]) [%] | Dmax (HiBit-KRAS^G12C [1]; [8]) [%] | Dmax (HiBit-KRAS^G12C [2]; [9]) [%] | KRas^G12C-HiBiT (MiaPaCa; 0.5% DMSO) DMax (HiBit-KRAS^G12C [1]; MiaPaCa-2 HiBit-KRas^G12C cells, 0.5% DMSO, maximum degradation) | KRas^G12C-HiBiT (SW1573; 0.5% DMSO) Dmax** (HiBit-KRAS^G12C [2]; SW1573 HiBit-KRas^G12C, 0.5% DMSO) | Dmax (HiBit-KRAS^G12C [1]; MIA PaCa-2, read-out: KRas^G12C-HiBiT (MiaPaCa; 0.1% DMSO) DMax, MiaPaCa-2 HiBit-KRas^G12C cells, 0.1% DMSO, maximum degradation) [%] | Dmax (HiBit-KRAS^G12C [2]; SW1573, read-out: KRas^G12C-HiBit (SW1573; 0.1% DMSO) Dmax**, SW1573 HiBit-KRas^G12C, 0.1% DMSO) [%] |
| --- | --- | --- | --- | --- | --- | --- | --- | --- | --- | --- | --- |
| C=CC(=O)N1CCN(c2nc(O[C@H](C)CN3CC(CN4CCN(CC(=O)N[C@H](C(=O)N5C[C@H](O)C[C@H]5C(=O)N[C@@H](C)c5ccc(-c6scnc6C)cc5)C(C)(C)C)CC4)C3)nc3c(F)c(-c4cc(O)cc5ccccc45)c(Cl)cc23)CC1 [Compound 59, (2S,4R)-1-[(2S)-2-{2-[4-({1-[(2R)-2-{[6-chloro-8-fluoro-7-(3-hydroxynaphthalen-1-yl)-4-[4-(prop-2-enoyl)piperazin-1-yl]quinazolin-2-yl]oxy}propyl]azetidin-3-yl}methyl)piperazin-1-yl]acetamido}-3,3-dimethylbutanoyl]-4-hydroxy-N-[(1S)-1-[4-(4-methyl-1,3-thiazol-5-yl)phenyl]ethyl]pyrrolidine-2-carboxamide] |  |  |  | > 1000 |  |  |  |  |  | < 35 | 35 to 70 |
| C=CC(=O)N1CCN(c2nc(O[C@H](C)CN3CCC(OCCOCC(=O)N[C@H](C(=O)N4C[C@@H](O)C[C@H]4C(=O)N[C@@H](C)c4ccc(-c5scnc5C)cc4)C(C)(C)C)CC3)nc3c(F)c(-c4cc(O)cc5ccccc45)c(Cl)cc23)CC1 [Compound 82, (2S,4S)-1-[(2S)-2-{2-[2-({1-[(2R)-2-{[6-chloro-8-fluoro-7-(3-hydroxynaphthalen-1-yl)-4-[4-(prop-2-enoyl)piperazin-1-yl]quinazolin-2-yl]oxy}propyl]piperidin-4-yl}oxy)ethoxy]acetamido}-3,3-dimethylbutanoyl]-4-hydroxy-N-[(1S)-1-[4-(4-methyl-1,3-thiazol-5-yl)phenyl]ethyl]pyrrolidine-2-carboxamide] | 35 to 70 |  |  | > 1000 | < 35 | 35 to 70 | 35 to 70 |  |  |  |  |
| C=CC(=O)N1CCN(c2nc(O[C@H](C)CN3CCC(COc4cc([C@@H](C(=O)N5C[C@H](O)C[C@H]5C(=O)N[C@@H](C)c5ccc(-c6scnc6C)cc5)C(C)C)on4)CC3)nc3c(F)c(-c4cc(O)cc5ccccc45)c(Cl)cc23)CC1 [Compound 20, (2S,4R)-1-[(2S)-2-[3-({1-[(2R)-2-{[6-chloro-8-fluoro-7-(3-hydroxynaphthalen-1-yl)-4-[4-(prop-2-enoyl)piperazin-1-yl]quinazolin-2-yl]oxy}propyl]piperidin-4-yl}methoxy)-1,2-oxazol-5-yl]-3-methylbutanoyl]-4-hydroxy-N-[(1S)-1-[4-(4-methyl-1,3-thiazol-5-yl)phenyl]ethyl]pyrrolidine-2-carboxamide] | 35 to 70 |  |  | 100 to 1000 | 35 to 70 | 35 to 70 | 35 to 70 |  |  |  |  |

The next lines start with results.

| Dmax (HiBit-KRAS^G12C [1]; [3]) [%] | DC50 (HiBit-KRAS^G12C [1]; [4]) [nM] | DC50 (HiBit-KRAS^G12C [2]; [5]) [nM] | DC50 (HiBit-KRAS^G12C [2]; [6]) [nM] | Dmax (HiBit-KRAS^G12C [2]; [7]) [%] | Dmax (HiBit-KRAS^G12C [1]; [8]) [%] | Dmax (HiBit-KRAS^G12C [2]; [9]) [%] | KRas^G12C-HiBiT (MiaPaCa; 0.5% DMSO) DMax (HiBit-KRAS^G12C [1]; MiaPaCa-2 HiBit-KRas^G12C cells, 0.5% DMSO, maximum degradation) | KRas^G12C-HiBiT (SW1573; 0.5% DMSO) Dmax** (HiBit-KRAS^G12C [2]; SW1573 HiBit-KRas^G12C, 0.5% DMSO) | SMILES | Dmax (HiBit-KRAS^G12C [1]; MIA PaCa-2, read-out: KRas^G12C-HiBiT (MiaPaCa; 0.1% DMSO) DMax, MiaPaCa-2 HiBit-KRas^G12C cells, 0.1% DMSO, maximum degradation) [%] | Dmax (HiBit-KRAS^G12C [2]; SW1573, read-out: KRas^G12C-HiBit (SW1573; 0.1% DMSO) Dmax**, SW1573 HiBit-KRas^G12C, 0.1% DMSO) [%] |
| --- | --- | --- | --- | --- | --- | --- | --- | --- | --- | --- | --- |
| < 35 | < 100 | > 1000 |  |  |  |  |  |  | C=CC(=O)N1CCN(c2nc(OCCN3CCC(COc4cc([C@H](C(=O)N5C[C@@H](O)C[C@H]5C(=O)N[C@@H](C)c5ccc(-c6scnc6C)cc5)C(C)C)on4)CC3)nc3c(F)c(-c4cc(O)cc5ccccc45)c(Cl)cc23)C[C@@H]1CC#N (atropisomer, axis not shown) [Compound 106, (2S,4S)-1-[(2R)-2-[3-({1-[2-({6-chloro-4-[(3S)-3-(cyanomethyl)-4-(prop-2-enoyl)piperazin-1-yl]-8-fluoro-7-(3-hydroxynaphthalen-1-yl)quinazolin-2-yl}oxy)ethyl]piperidin-4-yl}methoxy)-1,2-oxazol-5-yl]-3-methylbutanoyl]-4-hydroxy-N-[(1S)-1-[4-(4-methyl-1,3-thiazol-5-yl)phenyl]ethyl]pyrrolidine-2-carboxamide] |  |  |
| > 70 | 100 to 1000 | 100 to 1000 |  | > 70 |  |  |  |  | C=C(F)C(=O)N1CCN(c2nc(OCCN3CCC4(CC3)CN(c3cc([C@H](C(=O)N5C[C@H](O)C[C@H]5C(=O)N[C@@H](C)c5ccc(-c6ccnn6C)cc5)C(C)C)on3)C4)nc3c(F)c(-c4cc(O)cc5ccccc45)c(Cl)cc23)C[C@@H]1CC#N (atropisomer, axis not shown) [Compound 112, (2S,4R)-1-[(2R)-2-(3-{7-[2-({6-chloro-4-[(3S)-3-(cyanomethyl)-4-(2-fluoroprop-2-enoyl)piperazin-1-yl]-8-fluoro-7-(3-hydroxynaphthalen-1-yl)quinazolin-2-yl}oxy)ethyl]-2,7-diazaspiro[3.5]nonan-2-yl}-1,2-oxazol-5-yl)-3-methylbutanoyl]-4-hydroxy-N-[(1S)-1-[4-(1-methyl-1H-pyrazol-5-yl)phenyl]ethyl]pyrrolidine-2-carboxamide] |  |  |
| > 70 | 100 to 1000 | < 100 |  | > 70 |  |  |  |  | C=CC(=O)N1CCN(c2nc(OCCN3CCC4(CC3)CN(c3cc([C@H](C(=O)N5C[C@H](O)C[C@H]5C(=O)N[C@@H](C)c5ccc(-c6ccnn6C)cc5)C(C)C)on3)C4)nc3c(F)c(-c4cc(O)cc5ccccc45)c(Cl)cc23)C[C@@H]1CC#N (atropisomer, axis not shown) [Compound 116, (2S,4R)-1-[(2R)-2-(3-{7-[2-({6-chloro-4-[(3S)-3-(cyanomethyl)-4-(prop-2-enoyl)piperazin-1-yl]-8-fluoro-7-(3-hydroxynaphthalen-1-yl)quinazolin-2-yl}oxy)ethyl]-2,7-diazaspiro[3.5]nonan-2-yl}-1,2-oxazol-5-yl)-3-methylbutanoyl]-4-hydroxy-N-[(1S)-1-[4-(1-methyl-1H-pyrazol-5-yl)phenyl]ethyl]pyrrolidine-2-carboxamide] |  |  |
|  | > 1000 | 100 to 1000 |  |  |  |  |  |  | C=C(F)C(=O)N1CCN(c2nc(OCCN3CCC(C)(COc4cc([C@@H](C(=O)N5C[C@H](O)C[C@H]5C(=O)N[C@@H](C)c5ccc(-c6ccnn6C)cc5)C(C)C)on4)CC3)nc3c(F)c(-c4cc(O)cc5ccccc45)c(Cl)cc23)C[C@@H]1CC#N (atropisomer, axis not shown) [Compound 125, (2S,4R)-1-[(2S)-2-[3-({1-[2-({6-chloro-4-[(3S)-3-(cyanomethyl)-4-(2-fluoroprop-2-enoyl)piperazin-1-yl]-8-fluoro-7-(3-hydroxynaphthalen-1-yl)quinazolin-2-yl}oxy)ethyl]-4-methylpiperidin-4-yl}methoxy)-1,2-oxazol-5-yl]-3-methylbutanoyl]-4-hydroxy-N-[(1S)-1-[4-(1-methyl-1H-pyrazol-5-yl)phenyl]ethyl]pyrrolidine-2-carboxamide] |  |  |
|  |  |  | 100 to 1000 |  | > 70 | 35 to 70 | A (A ≥ 70) | A (A ≥ 70) | C=CC(=O)N1CCN(c2nc(OCCN3CCC(COCC(=O)N[C@H](C(=O)N4C[C@H](O)C[C@H]4C(=O)N[C@@H](C)c4ccc(-c5scnc5C)cc4)C(C)(C)C)CC3)nc3c(F)c(-c4cc(O)cc5ccccc45)c(Cl)cc23)C[C@@H]1CC#N [Compound 17, (2S,4R)-1-[(2S)-2-[2-({1-[2-({6-chloro-4-[(3S)-3-(cyanomethyl)-4-(prop-2-enoyl)piperazin-1-yl]-8-fluoro-7-(3-hydroxynaphthalen-1-yl)quinazolin-2-yl}oxy)ethyl]piperidin-4-yl}methoxy)acetamido]-3,3-dimethylbutanoyl]-4-hydroxy-N-[(1S)-1-[4-(4-methyl-1,3-thiazol-5-yl)phenyl]ethyl]pyrrolidine-2-carboxamide] |  |  |

Reference: US20220370416A1, “COMPOUNDS AND METHODS FOR TARGETED DEGRADATION OF KRAS” (Arvinas Operations, Inc., priority 2020, published 2022)
